* marks the point of attachment. Myristoyl = CCCCCCCCCCCCCC(=O)*

These results are taken from patent publication US6723830B2, “Short peptides which selectively modulate the activity of protein kinases” (Children's Medical Center Corporation, priority 1998, dated 2004).

Assay [1] relates to B16 melanoma cells. Put plainly: Induction of melanogenesis in B16 melanoma cells, observed by eye. Format: cell-based, mouse. As to conditions: 5 days incubation; increase in black pigment seen by eye; FIG. 7. The procedure:
B16 melanoma cells (a mouse tumor cell line) were cultured in a 24-well plate, 10^5 cells/well, in the presence of various concentrations of K085D102, a Jak2-derived peptide from the αD region. After 5 days incubation in DMEM+10% fetal calf serum under standard conditions, the plate was observed by eye for melanogenesis. Melanogenesis induction was visualized by an increase in the amount of the black pigment in the well. The results are illustrated in FIG. 7 and clearly show a dose response down to a concentration as low as 0.15 μM of the Jak2 peptide of the αD region present in the well.

The nature of assay [2]: Appetite suppression: food intake and body weight in mice. It counts as in vivo. As to conditions: C57BL mice. The method, then:
Male CB6F1 or C57BL mice (Harlan), about 2-4 months old, were fed a pelleted rodent maintenance diet (Koffolk, Tel Aviv, Israel, 19520). The food containers for each group were weighed daily and the average food consumption was calculated per mouse per day.
During the experimental period, the mice were injected intraperitoneally once a day for two consecutive days, 4 mg/mouse, with K085D102 (a Jak2-derived peptide from the αD region) solubilized in 10% DMSO in PBS+0.1% BSA in a volume of 0.2 ml. The control groups were injected with 0.2 ml of the vehicle only.
FIGS. 4 and 5 illustrate the results obtained with CB6F1 mice while Table II summarizes the results obtained with C57BL mice.

The test system of assay [3] is fresh adipocytes. Nature of the assay: Glucose uptake (3H-deoxy glucose) by adipose tissue cells. Format: cell-based, rats. The settings on record: 10 μM peptide. The procedure: To 3 ml of buffer with 10 mg collagenase, 3 g epididymal fat pad (from 2-3 male rats) was introduced. The fat was cut up with scissors. The pieces of fat were swirled and shaken in a 37° C. water bath set at 100-150 repetitions/minute for approximately 1 hour with swirling every 15 minutes while digesting and every 5 minutes towards the end. About 6 ml of buffer was added to the vial.
A 250μ nylon mesh over the top was secured with a rubber band and the contents of the container were gently squeezed into a 50 ml plastic tube. The total volume for each wash was 15 ml.
The tube was centrifuged. The adipose cells floated to the top of the liquid. The buffer was removed using a 35 ml metal-tipped syringe with a needle. Buffer was added to 15 ml and the clumps of cells were gently broken up by mixing up and down in the syringe. This process was repeated for a total of 4 centrifugations at 1000 with the last centrifugation at 2000 rpm. At this point, any fat was removed from the top of the cells.
Buffer and dilute cell suspension with buffer were removed to cytocrit of 5-10%. The cells were kept at 37° C. for 1 hour.
500 μl buffer was added with or without additives (insulin 10-10,000 μU/ml, peptides 0.1-10 μM) to 10 ml plastic tubes.
500 μl aliquots of the cell suspension were added to the tubes.
After incubation for 30 minutes at 37° C. in a shaking water bath (approximately 300 strokes/minute), 200 μl of buffer containing 3H—Deoxy Glucose (approx. 1200 cpm/μl) was added to each tube.
After 30 minutes incubation with 3H-DOG at 37° C., 200 μl aliquots were transferred to microcentrifuge tubes containing 200 μl Dinonyl phthalate. Cells were rapidly separated from the aqueous buffer by centrifugation at 10,000 g for 30-60 sec. Cells separated in the top layer from the aqueous buffer by Dinonyl phthalate.
Cell associated radioactivity was counted in a liquid scintillation counter.
Glucose-uptake was measured in fresh adipocytes, incubated with or without insulin (10 μU) as described above, in the absence (control) or the presence of 10 μM of peptide K094D101 (derived from the αD region of IRK).

Assay [4] has as its system CD4+ T cells. Put plainly: Th1/Th2 bioassay: IL-4 and IFNγ secretion by ELISA. Format: cell-based, Balb/c mice. As to conditions: CD4+ T cells incubated 5 days with 0.4, 2 or 10 μM peptide; 24 hour re-stimulation; FIG. 6. The method, then: 0.5×10^6 small resting CD4+ T cells were isolated from lymph nodes of 8 week-old Balb/c mice. These CD4+ T cells were incubated for 5 days in 2 ml culture medium in 24 well plates coated with anti-CD3 and anti-CD28 antibodies: (5 μg/ml and 2 μg/ml, respectively). 0.4, 2 or 10 μM Jak-derived peptides, initially in 10 μl DMSO, were present in the medium during the 5 day activation period. Control wells contained 10 μl of DMSO (the solvent of the peptide).
At the end of the 5 day stimulation period, the medium was replaced with fresh medium containing 10 u/ml IL-2 and the cells were removed from the antibody-coated wells to uncoated wells for a 3 day “rest” and expansion period. Under these stimulating and rest conditions, the differentiation process led to the acquisition of Th2 phenotype (high IL-4 and low IFNγ production upon secondary challenge).
At the end of the rest period, the cells were removed, washed and counted. 0.5×10^6 cells were re-stimulated in 1 ml of culture medium by incubation for 24 hours on anti-CD3-+anti-CD28-coated 24 well plates. At the end of the 24 hour re-stimulation period, the supernatant was removed and the level of secreted IL-4 and IFNγ was determined by ELISA. The results were expressed as u/ml or pg/ml of IL-4 and IFNγ respectively, which were secreted into the culture medium by 0.5×10^6 cells during the re-stimulation period.

The subject of assay [5] is Human prostate cancer cells (PC3). Nature of the assay: Proliferation of human prostate cancer cells PC3 (methylene blue cell count). It counts as cell-based. As to conditions: concentration at which significant inhibition of cell proliferation was observed; 72-80 hours incubation. The method, then:
(§1) Human endothelial cells (referred to herein as “HEC cells”) are the cell line described by Schweitzer et al., Laboratory Investigation 76(1):25 (1997). Human prostate cancer cells (PC3) were obtained by the procedures disclosed in Arbiser et al., Proc. Natl. Acad. Sci. 94:861 (1997), the teachings of which are incorporated herein by reference.
(§2) 96 well, flat bottom, tissue culture microtiter plates were pre-coated with gelatin (Difco) immediately prior to cell plating by adding 0.100 ml/well of freshly filtered 1% gelatin in glass double distilled water (DDW). The wells were incubated for about 1 hour at 37° C., and then the excess solution was removed by aspiration.
(§3) Culture medium was prepared from DMEM, penicillin/streptomycin/glutamine (penicillin—100 U/ml; streptomycin—100 μμg/mL; and glutamine—2 mM) and 10% endotoxin free bovine calf serum (Hyclone). A suspension of the cell type being tested at 25×10^3 cells/ml was prepared in the above described culture medium and distributed 0.160 ml/well (about 4000 endothelial cells/well).
(§4) A series of αD peptide stock solutions was prepared by diluting a 10 mM solution of the αD peptide in 100% DMSO with phosphate buffered saline (PBS) containing 0.1% BSA. […]
(§5) The wells were washed one time with borate buffer (0.1 M, pH 8.5). […] After extracting overnight, the O.D. was read at 630 nm to determine the number of cells per well. […]

The subject of assay [6] is Human endothelial cells (HEC cells). Put plainly: Proliferation of human endothelial cells (methylene blue cell count). Format: cell-based. As to conditions: concentration at which significant inhibition of cell proliferation was observed; 72-80 hours incubation. The method, then: as §1, §2, §3, §4, §5
[7] abbreviates: 4 mg/mouse intraperitoneally once a day for two consecutive days, treatment day 1.
[8] abbreviates: 4 mg/mouse intraperitoneally once a day for two consecutive days, treatment day 2.
The mark [9] stands for this setting: recovery after two days of treatment.

For the substance “K085D102: a Jak2-derived peptide from the αD region, SEQ ID NO:143 (GLRDYLQKHKERI), N-myristylated, C-amidated (Myristoyl-GLRDYLQKHKERI-NH2; SMILES CCCCCCCCCCCCCC(=O)NCC(=O)N[C@@H](CC(C)C)C(=O)N[C@@H](CCCNC(=N)N)C(=O)N[C@@H](CC(=O)O)C(=O)N[C@@H](Cc1ccc(O)cc1)C(=O)N[C@@H](CC(C)C)C(=O)N[C@@H](CCC(N)=O)C(=O)N[C@@H](CCCCN)C(=O)N[C@@H](Cc1c[nH]cn1)C(=O)N[C@@H](CCCCN)C(=O)N[C@@H](CCC(=O)O)C(=O)N[C@@H](CCCNC(=N)N)C(=O)N[C@H](C(N)=O)[C@@H](C)CC)”, the “Melanogenesis induction: lowest concentration showing dose response” value in assay [1] was found to be 0.15 µM. In addition, in assay [2] (setting [7]), the “% change in body wt. (relative to day 0), treatment day 1” value is 94% and the “Food Intake (g/mouse/day), treatment day 1” value was 0.24 g/mouse/day. In addition, in assay [2] (setting [8]), the “% change in body wt. (relative to day 0), treatment day 2” value is 95% and the “Food Intake (g/mouse/day), treatment day 2” value is listed as 1.43 g/mouse/day. The “Food Intake (g/mouse/day), baseline” value in assay [2] (baseline before treatment) stood at 3.16 g/mouse/day. The “% change in body wt. (relative to day 0), day 0” value in assay [2] (day 0 (reference)) is recorded as 100%. In assay [2] (setting [9]), the “% change in body wt. (relative to day 0), recovery” value is 97% and the “Food Intake (g/mouse/day), recovery” value stood at 3.62 g/mouse/day.

Take “K094D101: peptide derived from the αD region of IRK; SEQ ID NO:137 by list order, possibly SEQ ID NO:136 (myristylated) (Myristoyl-AQNNPGRPPPTL-NH2; SMILES CCCCCCCCCCCCCC(=O)N[C@@H](C)C(=O)N[C@@H](CCC(N)=O)C(=O)N[C@@H](CC(N)=O)C(=O)N[C@@H](CC(N)=O)C(=O)N1CCC[C@H]1C(=O)NCC(=O)N[C@@H](CCCNC(=N)N)C(=O)N1CCC[C@H]1C(=O)N1CCC[C@H]1C(=O)N1CCC[C@H]1C(=O)N[C@H](C(=O)N[C@@H](CC(C)C)C(N)=O)[C@@H](C)O)”: in assay [3] (insulin 10 μU/ml), the “Glucose uptake, % of Control, +Insulin 10 μU/ml” value was 67& and the “Glucose-Update: Mean DPM ± SEM of Quadruplicates, +Insulin 10 μU/ml” value is recorded as 1,210 ± 110 DPM. For the same substance, in assay [3] (without insulin), the “Glucose uptake, % of Control, −Insulin” value is listed as 67% and the “Glucose-Update: Mean DPM ± SEM of Quadruplicates, −Insulin” value is on record as 775 ± 72 DPM.

Take “K086D102: Jak3 peptide derived from the αD region, SEQ ID NO:146 (GMEYLPSGSLRDFLQRHRARL), N-myristylated, C-amidated (Myristoyl-GMEYLPSGSLRDFLQRHRARL-NH2; SMILES CCCCCCCCCCCCCC(=O)NCC(=O)N[C@@H](CCSC)C(=O)N[C@@H](CCC(=O)O)C(=O)N[C@@H](Cc1ccc(O)cc1)C(=O)N[C@@H](CC(C)C)C(=O)N1CCC[C@H]1C(=O)N[C@@H](CO)C(=O)NCC(=O)N[C@@H](CO)C(=O)N[C@@H](CC(C)C)C(=O)N[C@@H](CCCNC(=N)N)C(=O)N[C@@H](CC(=O)O)C(=O)N[C@@H](Cc1ccccc1)C(=O)N[C@@H](CC(C)C)C(=O)N[C@@H](CCC(N)=O)C(=O)N[C@@H](CCCNC(=N)N)C(=O)N[C@@H](Cc1c[nH]cn1)C(=O)N[C@@H](CCCNC(=N)N)C(=O)N[C@@H](C)C(=O)N[C@@H](CCCNC(=N)N)C(=O)N[C@@H](CC(C)C)C(N)=O)”: in assay [4], the “IFNγ production (Th1 conversion)” value was “increase” and the “IL-4 production (Th1 conversion)” value is “decrease”.

Turning to “K086D101: Jak3 αD region peptide, SEQ ID NO:145 (GMEYLPSGSLRDFLQRHRAL), N-myristylated, C-amidated (Myristoyl-GMEYLPSGSLRDFLQRHRAL-NH2; SMILES CCCCCCCCCCCCCC(=O)NCC(=O)N[C@@H](CCSC)C(=O)N[C@@H](CCC(=O)O)C(=O)N[C@@H](Cc1ccc(O)cc1)C(=O)N[C@@H](CC(C)C)C(=O)N1CCC[C@H]1C(=O)N[C@@H](CO)C(=O)NCC(=O)N[C@@H](CO)C(=O)N[C@@H](CC(C)C)C(=O)N[C@@H](CCCNC(=N)N)C(=O)N[C@@H](CC(=O)O)C(=O)N[C@@H](Cc1ccccc1)C(=O)N[C@@H](CC(C)C)C(=O)N[C@@H](CCC(N)=O)C(=O)N[C@@H](CCCNC(=N)N)C(=O)N[C@@H](Cc1c[nH]cn1)C(=O)N[C@@H](CCCNC(=N)N)C(=O)N[C@@H](C)C(=O)N[C@@H](CC(C)C)C(N)=O)”, the “S.I.* (μM) for PC3 Cells” value in assay [5] is 0.6 µM. Moreover, the “S.I.* (μM) for HEC Cells” value in assay [6] was 0.6 µM.
